± gives the expanded uncertainty stated by the source.
How the values were obtained:
[1] = Molar enthalpy of transition or fusion; conditions: Crystal; DSC
[2] = Crystal; DSC

Row | Compound | Molar enthalpy of transition or fusion [1] [kcal/mol] | Triple point temperature [2] [K]
1 | c1ccc2cc3cc4ccccc4cc3cc2c1 [2,3-benzanthracene] | 8.94 ± 0.908 | 623.75 ± 1.2
2 | c1ccc(N(c2ccc(-c3ccc(N(c4ccccc4)c4cccc5ccccc45)cc3)cc2)c2cccc3ccccc23)cc1 [N,N'-di(1-naphthyl)-N,N'-diphenyl benzidine] | 14.1 ± 1.43 | 551.75 ± 1.2

— the NIST ThermoML archive (doi:10.1021/acs.jced.8b00536)
